The series is described as follows: Solubility of amlodipine hemifumarate in water and organic solvents (descriptive statement). The conditions noted are these: in water and most commonly used organic solvents. The series is classed as physicochemical.

In the case of Amlodipine Hemifumarate, the solubility result was “insoluble or only sparingly soluble”.

For the origin of these results see patent US6518288B2, “Amlodipine fumarate” (Synthon BV, priority 2000, dated 2003).
